In patent US6413974B1, “6,9,-disubstituted 2-[trans-(4-aminocyclohexyl) amino] purines” (Aventis Pharmaceuticals Inc., priority 1998, dated 2002):
Values joined by “and” are separate entries in the source; they are usually repeats but may differ in a detail not shown here. Equal entries are not always repeated. Structures can show the parent of a compound that is named as a salt. Where two headings read alike, the source gives them in different places.

Experiments:
[1] = system: PC12 cells, or rat sympathetic neurons; settings: cited from earlier work
[2] = system: cortical neurons; settings: cited from earlier work
[3] = system: p34^cdc2-cyclin B kinases; settings: Havlicek et al. 1997; cited from earlier work
[4] = target: T1, cdk2/cyclin E (Homo sapiens, UniProt P24941); experiment: Cyclin-Dependent Kinase 2 Assay (cdk-2 inhibition); format: biochemical; settings: GST-Rb substrate, 30 min at 30° C.
T1 construct: made in house; host or cells: insect cells (baculovirus co-infection)
Summary of the method: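 GST-Rb bound to glutathione-Sepharose beads (0.5 μg/well) as substrate in 50 mM HEPES pH 7.5, 10 mM MgCl2, 1 mM EGTA. Recombinant cdk2/cyclin E at 0.1 μg per 100 μl, 30 min at 30 °C. Reaction stopped by filtration, TNEN washes, scintillation counting.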

[5] = target: T2, cdk4/cyclin D1 (Homo sapiens, UniProt P11802); experiment: Cyclin-dependent kinase 4 Assay; format: biochemical; settings: cdk4/cyclin D1, GST-Rb substrate, 10 μM ATP, 30 min at 37° C.; read-out: CDK4 Inhibition IC50
T2 construct: made in house; host or cells: Sf9 insect cells (Bac-to-Bac baculovirus, pFastBac)
T2 sequence (P11802 whole entry): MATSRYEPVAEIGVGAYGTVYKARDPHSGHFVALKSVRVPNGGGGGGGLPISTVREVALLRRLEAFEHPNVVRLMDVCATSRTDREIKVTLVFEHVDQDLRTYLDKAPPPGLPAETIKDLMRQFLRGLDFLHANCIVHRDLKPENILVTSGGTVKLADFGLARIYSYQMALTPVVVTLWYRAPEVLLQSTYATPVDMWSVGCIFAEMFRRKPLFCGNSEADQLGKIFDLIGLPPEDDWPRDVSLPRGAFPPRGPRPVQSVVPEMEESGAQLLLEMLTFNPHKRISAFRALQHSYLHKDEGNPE
T2 sequence (P24385 whole entry partner): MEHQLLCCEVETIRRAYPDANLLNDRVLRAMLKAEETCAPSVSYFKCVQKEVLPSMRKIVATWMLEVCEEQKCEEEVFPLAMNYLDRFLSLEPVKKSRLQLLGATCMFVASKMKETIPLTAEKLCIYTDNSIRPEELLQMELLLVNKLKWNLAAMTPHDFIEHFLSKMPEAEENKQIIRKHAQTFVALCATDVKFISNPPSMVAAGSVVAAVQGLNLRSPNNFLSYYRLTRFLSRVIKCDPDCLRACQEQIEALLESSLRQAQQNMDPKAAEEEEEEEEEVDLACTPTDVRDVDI
Summary of the method: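 Insect-cell lysate of coexpressed human cdk4/cyclin D1 (0.1 μg) phosphorylated bead-bound GST-Rb (0.5 μg) in 50 mM HEPES pH 7.5, 10 mM MgCl2, 1 mM EGTA for 30 min at 37 °C. Filters were washed with TNEN and scintillation-counted; IC50 values derived.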

[6] = system: MCF-7; experiment: In vitro tumor cell proliferation, MCF-7; format: cell-based, human; settings: read-out: In vitro Tumor Cell Proliferation (IC50, μM) Breast MCF-7
Experimental: (§1) The proliferation of tumor cells was measured using a sulforhodamine B assay as described in Skehan, P., et al., J. Natl. Cancer Inst. […] Tumor cells were harvested with trypsin-EDTA, cells that excluded trypan blue were counted, added to 96-well plates and incubated overnight at 37° C. Drug was added to the wells following dilution in culture medium. Three days later, the medium was removed and replenished with medium containing fresh drug and incubated an additional 4 days. The cells were then fixed with 0.1 ml 10% trichloroacetic acid for 60 min at 4° C. The plates were rinsed five times with tap water, air-dried and stained for 30 min with 0.4% sulforhodamine B in 1% acetic acid and air-dried.
(§2) Alternatively, the CyQUANT cell proliferation assay was used to quantify tumor cell proliferation. Tumor cells were harvested with trypsin-EDTA, cells that excluded trypan blue were counted, added to 96-well plates and incubated overnight at 37° C. Drug was added to the wells following dilution in culture medium. Three days later the medium was removed and the plates frozen at −80° C. for at least 30 minutes.
MCF7 is a human breast adenocarcinoma, hormone-dependent (HTB 22);

[7] = system: MDA-MB-231; experiment: In vitro tumor cell proliferation, MDA-MB-231; format: cell-based, human; settings: read-out: In vitro Tumor Cell Proliferation (IC50, μM) Breast MDA-MB-231
Summary of the method: (§3)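 SRB read-out: 3-day drug exposure, medium and drug renewed, 4 further days, TCA fixation at 4° C, 0.4% SRB stain. CyQUANT alternative: 3-day drug exposure, then plates frozen at −80° C ≥30 min. Cells plated overnight at 37° C before dosing.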

[8] = system: HT-29; experiment: In vitro tumor cell proliferation, HT-29; format: cell-based, human; settings: read-out: In vitro Tumor Cell Proliferation (IC50, μM) Colon HT-29 (converted)
Summary of the method: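 HT-29 human colon adenocarcinoma cells plated overnight at 37° C., then exposed to drug for 3 days, medium with fresh drug replaced for a further 4 days. Cells fixed with 10% TCA and stained with 0.4% sulforhodamine B; alternatively, CyQUANT read after 3 days of drug exposure.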

[9] = system: HCT-15; experiment: In vitro tumor cell proliferation, HCT-15; format: cell-based, human; settings: read-out: In vitro Tumor Cell Proliferation (IC50, μM) Colon HCT-15
Experimental: as §1, §2

[10] = system: A549; experiment: In vitro tumor cell proliferation, A549; format: cell-based, human; settings: read-out: In vitro Tumor Cell Proliferation (IC50, μM) Lung A549
Summary of the method: as §3

[11] = system: DMS-114; experiment: In vitro tumor cell proliferation, DMS-114; format: cell-based, human; settings: read-out: In vitro Tumor Cell Proliferation (IC50, μM) Lung DMS-114
Summary of the method: as §3

[12] = system: PC-3; experiment: In vitro tumor cell proliferation, PC-3; format: cell-based, human; settings: read-out: In vitro Tumor Cell Proliferation (IC50, μM) Prostate PC-3
Summary of the method: as §3

[13] = system: DU 145; experiment: In vitro tumor cell proliferation, DU 145; format: cell-based, human; settings: read-out: In vitro Tumor Cell Proliferation (IC50, μM) Prostate DUI45
Summary of the method: as §3

[14] = system: neuronal PC12 cells and sympathetic neurons; settings: cited from earlier work
[15] = system: proliferating PC12 cells; settings: cited from earlier work
[16] = Homo sapiens, MCF7, values without *
[17] = values without *, dihydrochloride
[18] = Homo sapiens, MDA-MB-231, values without *
[19] = Homo sapiens, HT-29, values without *
[20] = Homo sapiens, HCT-15, values without *
[21] = Homo sapiens, A549, values without *
[22] = Homo sapiens, DMS-114, values without *
[23] = Homo sapiens, PC-3, values without *
[24] = Homo sapiens, DU-145, values without *
[25] = values without *, trihydrochloride

Row | IC50 [4] [nM] | IC50 [5] | IC50 [6, 16] [µM] | IC50 [7, 18] [µM] | IC50 [8, 19] [µM] | IC50 [9, 20] [µM] | IC50 [10, 21] [µM] | IC50 [11, 22] [µM] | IC50 [12, 23] [µM] | IC50 [13, 24] [µM] | Compound | other results
1 | – | – | – | – | – | – | – | – | – | – | Cn1cnc2nc(NCCO)nc(NCc3ccccc3)c21 [iso-olomoucine] | prevention of cell death of camptothecin-treated neuronal cells ([1]; PC12 cells / sympathetic neurons): failed to prevent the cell death; prevention of cell death of camptothecin-treated neuronal cells ([2]; cortical neurons): failed to prevent the cell death
2 | – | – | – | – | – | – | – | – | – | – | CC[C@@H](CO)Nc1nc(NCc2ccccc2)c2ncn(C(C)C)c2n1 (single isomer, unassigned) [(S) enantiomer] | IC50 [3]: 800 nM
3 | 720 | 11000 nM and 6700 nM | 4.1 | 5.9 | 6.3 | 9.4 | 6.4 | 7.4 | 5 | 6.2 | C[C@@H](Nc1nc(NC2CCC(N)CC2)nc2c1ncn2C1CCCC1)c1ccccc1 (stereo partly drawn) [Example 16, (R)-2-[Trans-(4-aminocyclohexyl)amino]-6-[(α-methylbenzylamino]-9-cyclopentylpurinedihydrochloride] | IC50 [6, 17]: 2.5 µM; IC50 [7, 17]: 4.4 µM; IC50 [8, 17]: 5.1 µM; IC50 [9, 17]: 7.8 µM; IC50 [10, 17]: 5.8 µM; IC50 [11, 17]: 5.1 µM; IC50 [12, 17]: 2.8 µM; IC50 [13, 17]: 5 µM
4 | 180 | 12000 nM | 1.6 | 4 | 4.8 | 16 | 2 | 2.1 | 2.4 | 2.5 | CC(C)n1cnc2c(NCc3ccccc3)nc(N[C@H]3CC[C@H](N)CC3)nc21 [Example 45, 2-[Trans-(4-aminocyclohexyl)amino]-6-(benzylamino)-9-(2-propyl)purine trihydrochloride] | IC50 [6, 25]: 1.7 µM; IC50 [7, 25]: 3 µM; IC50 [8, 25]: 3.5 µM; IC50 [9, 25]: 17 µM; IC50 [10, 25]: 1.8 µM; IC50 [11, 25]: 1.6 µM; IC50 [12, 25]: 1.4 µM; IC50 [13, 25]: 1.9 µM
5 | – | – | 0.06 | 0.095 | – | 0.1 | 0.08 | 0.08 | 0.07 | 0.08 | CN1CC[C@H](c2c(O)cc(O)c3c(=O)cc(-c4ccccc4Cl)oc23)[C@H](O)C1 [Flavoipiridol, reference compound] | apoptosis of post-mitotic differentiated or sympathetic neurons ([14]; following withdrawal of NGF): prevented apoptosis; death of neuronal PC12 cells and sympathetic neurons ([14]; two model systems of neuronal survival, Park et al. 1996): suppress the death; cell death at day 6 ([1]; both or individual olomoucine or flavopiridol, in the presence or absence of camptothecin): approximately 30%; concentration giving maximal protection from death ([1]; camptothecin-treated PC12 cells or rat sympathetic neurons): 1 µM; IC50 ([2]; Park et al. 1997, read-out: IC50, protection against camptothecin-induced cortical neuronal death): 100 nM; minimum concentration that fully inhibits DNA synthesis [15]: 1 µM
